The text below walks through data of patent US10640463B2, “Chlorhexidine crystal forms and uses thereof in medicine” (Queen Mary University of London, priority 2016, dated 2020).

Common to all, as to assay type: physicochemical
Series [1] can be described thus: Chlorhexidine release from HEMA-UDMA resin discs, with or without ultrasound. The method, then: HEMA-UDMA resin was prepared by mixing 64% urethane dimethacrylate (UDMA) (Esschem UK, Lot: 591-22) and 36% hydroxyethyl methacrylate (HEMA) (Aldrich, 128635, Lot: STBC7495V), 0.08% of N,N-dimethyl-P-toluidine (Acros Organics, Lot: A0207283001) and 0.05% dimethylamino ethyl methacrylate (Aldrich, 234907, Lot: BCBF8391V) were added. The mixture was then stirred for 15 min (800 rpm, VWR Stirrer, USA). Finally, camphorquinone (Aldrich, 12, 489-3, Lot: 2338141) was added at the proportion of 0.1%. The mixture was stirred for another 15 min (VWR Stirrer, USA), and then the viscous liquid resin was prepared. Freeze dried chlorhexidine chloride compounds produced in Example 2 (precipitated with 0.33 M CaCl2) were weighed and incorporated within the resin at a loading level of 5% by weight. To explore the effect of different morphology on the release kinetics, chlorhexidine compounds with spherical, needle and flake morphology (from Example 1, FIG. 1, panels (b) and (c)) were incorporated into the resin. Incorporation of the chlorhexidine compounds within the resin was carried out by rotating the mixture contained in a 1 ml tube for 15 s in a Rotomix (120V/60 Hz, 2850 rotations/min) (ESPE RotoMix, USA). Chlorhexidine diacetate was also incorporated in the prepared resin in the same way, with loading rates of 5%, 10% and 15% (weight %). The filled resin was then placed into a Teflon mould (10 mm in diameter ×2 mm thick) and cured through a Mylar film with a curing light (Bluedent LED pen, Bulgaria) (430-490 nm, 600 mW/sq·cm) for 30 s. Then the discs were next weighed on a microbalance (Salter Ander-180A weighing scale, UK), and chlorhexidine content in each disc was calculated.
(§1) For the release study, all sample resin discs (HEMA-UDMA) containing chlorhexidine chloride compounds or chlorhexidine diacetate powder prepared in Example 5 were kept in cuvettes containing 3 ml deionized water, and kept at room temperature. And at each time point, solutions were collected for UV absorption tests (Lambda 35, Perkin Elmer, USA) and replaced with fresh deionized water.
For the chlorhexidine chloride compound doped discs (Example 5) chlorhexidine content was fixed at 5%, and ultrasound was exerted. Four groups (five discs in each group) were repetitively treated with ultrasound for 0 s, 10 s, 20 s, 30 s, accordingly, by contacting the ultrasound probe (Piezon Master 400, Swiss, 60 Hz, 45VA) on the disc surface at time points of 1 h, 3 h, 5 h, 15 h, 25 h, 40 h, 65 h, 95 h, 140 h, 205 h. After that, no ultrasound was carried out for all the groups, but release was carried on until the 650 hour time point. The UDMA-HEMA discs containing needle and flake chlorhexidine compounds and chlorhexidine diacetate (FIG. 1, panels (b) and (c), and FIG. 3, panel (g)) were also tested (UV absorption tests) at the same time points (same sample numbers) but without ultrasound treatment. For the chlorhexidine diacetate powder doped discs chlorhexidine content of 5%, 10% and 15% were also analysed, and no ultrasound treatment was carried out.

Series [2] in a line: Chlorhexidine release from PMMA resin. The note with it: 5% loading, after 650 hours. On the procedure: as §1
The PMMA resin system was also tested for the release kinetics of spherical chlorhexidine chloride compounds. Specifically, PMMA resin was prepared by mixing the Simplex Rapid Liquid and powder (Kemdent, Lot: 920 758) at a weight ratio of 1:2. The self-cure process took about 15 min, and after which the mixture was filled into a Teflon mould in the same way and pressed (Mestra, Mod.030350). To incorporate the spherical chlorhexidine chloride compounds, they were previously mixed with the Simplex Rapid powder (5% weight of mixture), and the liquid was added.

A short description of series [3]: Chlorhexidine release from electrospun PLA fibres at different temperatures. The note with it: 5% in electrospun PLA fibres, deionized water, after 120 h. On the procedure: Electrospinning was utilized to fabricate spherical chlorhexidine chloride compound doped polylactic acid (PLA) fibres. Polylactic acid (Nature works, 2002D) was dissolved in a mixed solvent of chloroform and acetone (3:1 by volume) at 7 wt %. Spherical chlorhexidine chloride compounds were added at 5% weight to the PLA and mixed using a Rotomix. Electrospinning was carried out at room temperature (25° C.), with a pumping rate set at 1 ml/h, working distance at 15 cm, and voltage at 18 kv. Electrospun PLA fibres were collected on a foil. For the chlorhexidine release test, the fibres were weighed (Salter ANDER-180A weighing scale, UK) and divided into cuvettes, and each sample was 25 mg (n=5). Deionized water was added to each cuvette and fibres were kept immersed. Three groups of chlorhexidine chloride compound doped fibres were tested at different temperatures (25, 37 and 60° C.). At each time point (1, 3, 5, 10, 20, 30, 45, 72, 96, 120 h), the solutions were collected for the UV absorption test (Lambda 35, Perkin Elmer, USA) and replaced with fresh deionized water as in Example 6.

Regarding `Cl.Cl.N=C(NCCCCCCNC(=N)NC(=N)Nc1ccc(Cl)cc1)NC(=N)Nc1ccc(Cl)cc1` [chlorhexidine spheres], the chlorhexidine release is given as 1.2% in series [1] (5% loading, control group without ultrasound (0 s), by 205 hours); 4.6% in series [1] (5% loading, ultrasound 10 s at each time point, by 205 hours); 10.1% in series [1] (5% loading, ultrasound 20 s at each time point, by 205 hours); 14.9% in series [1] (5% loading, ultrasound 30 s at each time point, by 205 hours); around 2.7% in series [1] (no ultrasound, after 650 hours). Besides, in series [1] (5% loading, deionized water, room temperature, no ultrasound, within 65 hours), the “chlorhexidine released by weight” value is reported as 0.76%. Moreover, the chlorhexidine released in series [2] was found to be 8%. In addition, the chlorhexidine dissolved in series [3] (25° C.) was 65.8%; in series [3] (37° C.), 79.7%; in series [3] (60° C.), 89.6%.
